Values after ≈ are worked out from the molar mass of the structure shown.
How the values were obtained:
[1] = system: Escherichia coli; test: Antibacterial activity against Escherichia coli MTCC 739 after 24 hrs by agar well diffusion method; type: functional; conditions: MTCC 739, 24 h
[2] = system: Staphylococcus aureus; test: Antibacterial activity against Staphylococcus aureus MLS-16 MTCC 2940 after 24 hrs by agar well diffusion method; type: functional; conditions: MLS-16 MTCC 2940, 24 h
[3] = system: Escherichia coli; test: Bactericidal activity against Escherichia coli MTCC 739 measured after 24 hrs; type: functional; conditions: MTCC 739, 24 h
[4] = system: Staphylococcus aureus; test: Bactericidal activity against Staphylococcus aureus MLS-16 MTCC 2940 measured after 24 hrs; type: functional; conditions: MLS-16 MTCC 2940, 24 h
[5] = system: Candida albicans; test: Antifungal activity against Candida albicans MTCC 3017; type: functional
[6] = system: Candida albicans; test: Fungicidal activity against Candida albicans MTCC 3017 measured after 24 hrs; type: functional; conditions: MTCC 3017, 24 h
[7] = system: Raoultella planticola; test: Antibacterial activity against Klebsiella planticola MTCC 530 after 24 hrs by agar well diffusion method; type: functional; conditions: MTCC 530, 24 h
[8] = system: Raoultella planticola; test: Bactericidal activity against Klebsiella planticola MTCC 530 measured after 24 hrs; type: functional; conditions: MTCC 530, 24 h
[9] = system: Staphylococcus aureus; test: Bactericidal activity against Staphylococcus aureus MTCC 96 measured after 24 hrs; type: functional; conditions: MTCC 96, 24 h
[10] = system: Staphylococcus aureus; test: Antibacterial activity against Staphylococcus aureus MTCC 96 after 24 hrs by agar well diffusion method; type: functional; conditions: MTCC 96, 24 h
[11] = system: Bacillus subtilis; test: Antibacterial activity against Bacillus subtilis MTCC 121 after 24 hrs by agar well diffusion method; type: functional; conditions: MTCC 121, 24 h
[12] = system: Micrococcus luteus; test: Antibacterial activity against Micrococcus luteus MTCC 2470 after 24 hrs by agar well diffusion method; type: functional; conditions: MTCC 2470, 24 h
[13] = system: Micrococcus luteus; test: Bactericidal activity against Micrococcus luteus MTCC 2470 measured after 24 hrs; type: functional; conditions: MTCC 2470, 24 h
[14] = system: Bacillus subtilis; test: Bactericidal activity against Bacillus subtilis MTCC 121 measured after 24 hrs; type: functional; conditions: MTCC 121, 24 h
[15] = system: Pseudomonas aeruginosa; test: microbe, parasite or virus in culture; conditions: MTCC 2453, 24 h
Description: Bactericidal activity against Pseudomonas aeruginosa MTCC 2453 measured after 24 hrs

Compound | MIC [1] | MIC [2] | MIC [5] | MIC [10] | MIC [11] | MIC [12] | MBC [3] | MBC [4] | MFC [6] | MIC [7] | MBC [8] | MBC [9] | MBC [13] | MBC [14] | MBC [15]
O=C1COc2ccccc2N1Cc1cn(Cc2ccccc2)nn1 | 3.9 µg/mL (≈ 12.2 µM) | 1.9 µg/mL (≈ 5.93 µM) | – | – | – | – | 7.8 µg/mL (≈ 24.3 µM) | 3.9 µg/mL (≈ 12.2 µM) | – | – | – | – | – | – | –
O=C1COc2ccc(Cl)cc2N1Cc1cn(Cc2ccccc2)nn1 | – | – | 7.8 µg/mL (≈ 22 µM) | – | – | – | – | – | 15.6 µg/mL (≈ 44 µM) | – | – | – | – | – | –
O=C1COc2ccccc2N1Cc1cn(-c2ccc(F)cc2)nn1 | 7.8 µg/mL (≈ 24.1 µM) | – | 3.9 µg/mL (≈ 12 µM) | – | – | – | 15.6 µg/mL (≈ 48.1 µM) | – | 7.8 µg/mL (≈ 24.1 µM) | – | – | – | – | – | –
COc1ccc(-n2cc(CN3C(=O)COc4ccc(Cl)cc43)nn2)cc1 | – | 1.9 µg/mL (≈ 5.12 µM) | 7.8 µg/mL (≈ 21 µM) | – | – | – | – | 3.9 µg/mL (≈ 10.5 µM) | 15.6 µg/mL (≈ 42.1 µM) | – | – | – | – | – | –
Cc1ccc(-n2cc(CN3C(=O)COc4ccccc43)nn2)cc1 | 3.9 µg/mL (≈ 12.2 µM) | 3.9 µg/mL (≈ 12.2 µM) | 7.8 µg/mL (≈ 24.3 µM) | – | – | – | 7.8 µg/mL (≈ 24.3 µM) | 7.8 µg/mL (≈ 24.3 µM) | 15.6 µg/mL (≈ 48.7 µM) | 3.9 µg/mL (≈ 12.2 µM) | 7.8 µg/mL (≈ 24.3 µM) | – | – | – | –
O=C1COc2ccccc2N1Cc1cn(-c2ccc([N+](=O)[O-])cc2)nn1 | – | – | 15.6 µg/mL (≈ 44.4 µM) | – | – | – | – | – | 31.2 µg/mL (≈ 88.8 µM) | – | – | – | – | – | –
COc1ccc(-n2cc(CN3C(=O)COc4ccccc43)nn2)cc1 | 7.8 µg/mL (≈ 23.2 µM) | – | 3.9 µg/mL (≈ 11.6 µM) | – | – | – | 15.6 µg/mL (≈ 46.4 µM) | – | 7.8 µg/mL (≈ 23.2 µM) | – | – | – | – | – | –
O=C1COc2ccccc2N1Cc1cn(-c2ccccc2)nn1 | – | – | – | 3.9 µg/mL (≈ 12.7 µM) | – | – | – | – | – | 3.9 µg/mL (≈ 12.7 µM) | 7.8 µg/mL (≈ 25.5 µM) | 7.8 µg/mL (≈ 25.5 µM) | – | – | –
O=C(O)c1cn(C2CC2)c2cc(N3CCNCC3)c(F)cc2c1=O [CIPROFLOXACIN] | 0.9 µg/mL (≈ 2.72 µM) | 0.9 µg/mL (≈ 2.72 µM) | – | 0.9 µg/mL (≈ 2.72 µM) | 0.9 µg/mL (≈ 2.72 µM) | 0.9 µg/mL (≈ 2.72 µM) | 0.9 µg/mL (≈ 2.72 µM) | 0.9 µg/mL (≈ 2.72 µM) | – | 0.9 µg/mL (≈ 2.72 µM) | 0.9 µg/mL (≈ 2.72 µM) | 0.9 µg/mL (≈ 2.72 µM) | 0.9 µg/mL (≈ 2.72 µM) | 0.9 µg/mL (≈ 2.72 µM) | 0.9 µg/mL (≈ 2.72 µM)
Clc1ccc(COC(Cn2ccnc2)c2ccc(Cl)cc2Cl)c(Cl)c1 (centres undefined) [MICONAZOLE] | – | – | 7.8 µg/mL (≈ 18.7 µM) | – | – | – | – | – | 7.8 µg/mL (≈ 18.7 µM) | – | – | – | – | – | –

Now from value to molecule, other results behind:

MIC [1] | MIC [2] | MIC [5] | MIC [10] | MIC [11] | MIC [12] | Compound | MBC [3] | MBC [4] | MFC [6] | MIC [7] | MBC [8] | MBC [9] | MBC [13] | MBC [14] | MBC [15]
3.9 µg/mL (≈ 12.2 µM) | 3.9 µg/mL (≈ 12.2 µM) | 7.8 µg/mL (≈ 24.3 µM) | – | – | – | Cc1ccccc1-n1cc(CN2C(=O)COc3ccccc32)nn1 | 7.8 µg/mL (≈ 24.3 µM) | 7.8 µg/mL (≈ 24.3 µM) | 15.6 µg/mL (≈ 48.7 µM) | 3.9 µg/mL (≈ 12.2 µM) | 7.8 µg/mL (≈ 24.3 µM) | – | – | – | –
3.9 µg/mL (≈ 10.9 µM) | 1.9 µg/mL (≈ 5.3 µM) | 7.8 µg/mL (≈ 21.7 µM) | 3.9 µg/mL (≈ 10.9 µM) | 1.9 µg/mL (≈ 5.3 µM) | 1.9 µg/mL (≈ 5.3 µM) | O=C1COc2ccc(Cl)cc2N1Cc1cn(-c2ccc(F)cc2)nn1 | 7.8 µg/mL (≈ 21.7 µM) | 3.9 µg/mL (≈ 10.9 µM) | 15.6 µg/mL (≈ 43.5 µM) | 3.9 µg/mL (≈ 10.9 µM) | 7.8 µg/mL (≈ 21.7 µM) | 7.8 µg/mL (≈ 21.7 µM) | 3.9 µg/mL (≈ 10.9 µM) | 3.9 µg/mL (≈ 10.9 µM) | –
– | – | 7.8 µg/mL (≈ 22.9 µM) | – | – | – | O=C1COc2ccccc2N1Cc1cn(-c2ccc(Cl)cc2)nn1 | – | – | 15.6 µg/mL (≈ 45.8 µM) | – | – | – | – | – | –
– | – | 7.8 µg/mL (≈ 20.2 µM) | – | – | – | O=C1COc2ccc(Cl)cc2N1Cc1cn(-c2ccc([N+](=O)[O-])cc2)nn1 | – | – | 15.6 µg/mL (≈ 40.4 µM) | – | – | – | – | – | –
– | 1.9 µg/mL (≈ 5.36 µM) | 7.8 µg/mL (≈ 22 µM) | 1.9 µg/mL (≈ 5.36 µM) | 1.9 µg/mL (≈ 5.36 µM) | 1.9 µg/mL (≈ 5.36 µM) | Cc1ccc(-n2cc(CN3C(=O)COc4ccc(Cl)cc43)nn2)cc1 | – | 3.9 µg/mL (≈ 11 µM) | 15.6 µg/mL (≈ 44 µM) | 3.9 µg/mL (≈ 11 µM) | 7.8 µg/mL (≈ 22 µM) | 3.9 µg/mL (≈ 11 µM) | 3.9 µg/mL (≈ 11 µM) | 3.9 µg/mL (≈ 11 µM) | –
3.9 µg/mL (≈ 11 µM) | 1.9 µg/mL (≈ 5.36 µM) | 7.8 µg/mL (≈ 22 µM) | 1.9 µg/mL (≈ 5.36 µM) | 1.9 µg/mL (≈ 5.36 µM) | 1.9 µg/mL (≈ 5.36 µM) | Cc1ccccc1-n1cc(CN2C(=O)COc3ccc(Cl)cc32)nn1 | 7.8 µg/mL (≈ 22 µM) | 3.9 µg/mL (≈ 11 µM) | 15.6 µg/mL (≈ 44 µM) | 3.9 µg/mL (≈ 11 µM) | 7.8 µg/mL (≈ 22 µM) | 3.9 µg/mL (≈ 11 µM) | 3.9 µg/mL (≈ 11 µM) | 3.9 µg/mL (≈ 11 µM) | –
